Test results as given in patent US20240246918A1, “COMPOUNDS AND COMPOSITIONS AS EIF4E INHIBITORS AND THE USES THEREOF” (Ribometrix, Inc., priority 2022, published 2024).

Key:
human eIF4E protein = molecular target: T1, human eIF4E protein (Homo sapiens, UniProt P06730); test: Biochemical competitive binding assay (TR-FRET competition, EDA-m7GDP-ATTO-647N probe); details: read-out: hEIF4E TR-FRET IC50
T1 construct: purchased Novus NBP-45314
In short: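 IC50 values come from 4-parameter fits of the normalized 665/620 nm TR-FRET ratio. Compound was first incubated 15 min with 4 nM recombinant His-eIF4E bound to 2.5 nM Eu-anti-His antibody, then 15 min with 5 nM m7GDP-ATTO-647N tracer, in pH 7.5 HEPES buffer with 100 mM KCl, Tween-20 and BSA.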

[1] = test system: COLO 205 colorectal tumor cells; test: Tumor cell viability inhibition assay (CellTiter-Glo 2.0, 72 hours); type: cell-based; details: Homo sapiens, COLO 205, 72 h, COLO 205 cell viability
In short: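 IC50 derived by 4-parameter fitting after normalizing luminescence to DMSO and max-inhibition wells. Compounds tested as 11 concentrations in 4-fold steps on COLO 205 cells seeded at 1500 per well in RPMI-1640/10% FBS; ATP content measured with CellTiter-Glo 2.0 after 72 h.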

[2] = test system: cyclin D1 protein levels in COLO 205 cells; test: Cyclin D1 cellular inhibition assay (HTRF, 6 hours); type: cell-based; details: Homo sapiens, COLO 205, 6 h, 6 hours of compound treatment, Cyclin D1 protein levels by HTRF, read-out: COLO 205 6 h Cyclin D1 TR-FRET IC50
Method: The effect of compound treatment on cyclin D1 protein levels in COLO 205 cells was assessed, as follows. Test compound plates were prepared with a Tecan D300e Digital Dispenser as 11-point concentration-response curves with a final DMSO concentration of 1%. COLO 205 (ATCC, CCL-222) colorectal tumor cells were seeded to assay-ready plates in RPMI-1640 medium supplemented with 10% FBS at 20,000 cells in a volume of 6 microliters per well. After 6 hours of compound treatment, cells were lysed and Cyclin D1 protein levels were assessed by an HTRF assay (PerkinElmer #64CYCD1ITPEG), according to the manufacturer's protocol. Time-resolved fluorescence was measured using a Clariostar Plus microplate reader (BMG Labtech) or equivalent. After normalization to the average of DMSO control and maximum inhibition control wells, concentration-response data were plotted and standard 4-parameter curve fitting (GraphPad Prism v9.4.1) was utilized to determine IC50 values.

T1 sequence (P06730 whole entry): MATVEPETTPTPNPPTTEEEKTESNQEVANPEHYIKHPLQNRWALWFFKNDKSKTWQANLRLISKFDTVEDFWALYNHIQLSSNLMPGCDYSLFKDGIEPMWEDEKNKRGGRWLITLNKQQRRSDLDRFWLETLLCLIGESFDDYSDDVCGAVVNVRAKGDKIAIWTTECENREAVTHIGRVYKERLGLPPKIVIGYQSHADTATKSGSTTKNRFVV

| SMILES | IC50 (human eIF4E protein) | IC50 [1] | IC50 [2] |
| --- | --- | --- | --- |
| Cc1cc(-c2cc(Cl)ccc2OCCn2c(C)nc3c(c2=O)CC(N2CC4(CC=C(F)CC4)C2)CC3)c2scc(C(=O)O)c2n1 (stereo not drawn) [Compound 162] | < 0.1 µM | < 5 µM | < 5 µM |
| Cc1cc(-c2cc(Cl)ccc2OCCn2c(C)nc3c(c2=O)CC(N2CCC(C(F)(F)F)CC2)CC3)c2scc(C(=O)O)c2n1 (stereo not drawn) [Compound 163] | < 0.1 µM | < 5 µM | < 5 µM |
| Cc1cc(-c2cc(Cl)ccc2OCCn2c(C)nc3c(c2=O)CC(N2CCc4ncsc4C2)CC3)c2scc(C(=O)O)c2n1 (stereo not drawn) [Compound 164] | < 0.1 µM | < 5 µM | < 5 µM |
| Cc1cc(-c2cc(Cl)ccc2OCCn2c(C)nc3c(c2=O)CC(N2CCc4cccnc4C2)CC3)c2scc(C(=O)O)c2n1 (stereo not drawn) [Compound 165] | < 0.1 µM | < 5 µM | < 5 µM |
| Cc1cc(-c2cc(Cl)ccc2OCCn2c(C)nc3c(c2=O)CC(N2CCC4(CCC(F)(F)CC4)C2)CC3)c2scc(C(=O)O)c2n1 (stereo not drawn) [Compound 170] | < 0.1 µM | < 5 µM | < 5 µM |
| Cc1cc(-c2cc(Cl)ccc2OCCn2c(C)nc3c(c2=O)CC(N2CCc4ccncc4C2)CC3)c2scc(C(=O)O)c2n1 (stereo not drawn) [Compound 171] | < 0.1 µM | < 5 µM | < 5 µM |
| Cc1cc(-c2cc(Cl)ccc2OCCn2c(C)nc3c(c2=O)CC(N2CC4C(C2)C4(F)F)CC3)c2scc(C(=O)O)c2n1 (stereo not drawn) [Compound 172] | < 0.1 µM | < 5 µM | < 5 µM |
| Cc1cc(-c2cc(Cl)ccc2OCCn2c(C)nc3c(c2=O)CC(N(C)Cc2cccc(N)n2)CC3)c2scc(C(=O)O)c2n1 (stereo not drawn) [Compound 173] | < 0.1 µM | 5 to 20 µM | > 20 µM |
| Cc1cc(-c2cc(Cl)ccc2OCCn2c(C)nc3c(c2=O)CC(N2CCC4(CC2)CC4(F)F)CC3)c2scc(C(=O)O)c2n1 (stereo not drawn) [Compound 174] | < 0.1 µM | < 5 µM | < 5 µM |
| Cc1cc(-c2cc(Cl)ccc2OCCn2c(C)nc3c(c2=O)CC(N2C[C@@H]4CC(F)(F)C[C@@H]4C2)CC3)c2scc(C(=O)O)c2n1 (stereo partly drawn) [Compound 175] | < 0.1 µM | < 5 µM | < 5 µM |
| Cc1cc(-c2cc(Cl)ccc2OCCn2c(C)nc3c(c2=O)CC(N2CC4CCC(C4)C2)CC3)c2scc(C(=O)O)c2n1 (stereo not drawn) [Compound 176] | < 0.1 µM | < 5 µM | < 5 µM |
| Cc1cc2c(cn1)CCN(C1CCc3nc(C)n(CCOc4ccc(Cl)cc4-c4cc(C)nc5c(C(=O)O)csc45)c(=O)c3C1)C2 (stereo not drawn) [Compound 177] | < 0.1 µM | < 5 µM | < 5 µM |
| Cc1cc(-c2cc(Cl)ccc2OCCn2c(C)nc3c(c2=O)CC(N2CCC(OC(F)(F)F)CC2)CC3)c2scc(C(=O)O)c2n1 (stereo not drawn) [Compound 178] | < 0.1 µM | < 5 µM | < 5 µM |
| Cc1cc(-c2cc(Cl)ccc2OCCn2c(C)nc3c(c2=O)CC(N2CCC(OC4CC4)CC2)CC3)c2scc(C(=O)O)c2n1 (stereo not drawn) [Compound 179] | < 0.1 µM | < 5 µM | < 5 µM |
| Cc1cc(-c2cc(Cl)ccc2OCCn2c(C)nc3c(c2=O)CC(N2CCc4ncccc4C2)CC3)c2scc(C(=O)O)c2n1 (stereo not drawn) [Compound 180] | < 0.1 µM | < 5 µM | < 5 µM |
| Cc1cc(-c2cc(Cl)ccc2OCCn2c(C)nc3c(c2=O)CC(N2CCc4sccc4C2)CC3)c2scc(C(=O)O)c2n1 (stereo not drawn) [Compound 181] | < 0.1 µM | < 5 µM | < 5 µM |
| Cc1csc(CN(C)C2CCc3nc(C)n(CCOc4ccc(Cl)cc4-c4cc(C)nc5c(C(=O)O)csc45)c(=O)c3C2)n1 (stereo not drawn) [Compound 182] | < 0.1 µM | < 5 µM | < 5 µM |
| Cc1cc(-c2cc(Cl)ccc2OCCn2c(C)nc3c(c2=O)CC(N(C)Cc2cnc(C)s2)CC3)c2scc(C(=O)O)c2n1 (stereo not drawn) [Compound 185] | < 0.1 µM | < 5 µM | < 5 µM |
| Cc1cc(-c2cc(Cl)ccc2OCCn2c(C)nc3c(c2=O)CC(N(C)Cc2cc[nH]n2)CC3)c2scc(C(=O)O)c2n1 (stereo not drawn) [Compound 186] | < 0.1 µM | > 20 µM | > 20 µM |
